Test results reported in article PMC11802874, “The hypolipidemic effect of MI-883, the combined CAR agonist/ PXR antagonist, in diet-induced hypercholesterolemia model” (Nature Communications, 2025).
Values joined by “and” are separate entries in the source; they are usually repeats but may differ in a detail not shown here. Identical values can stand only once.

Experiments:
PPARγ = PPARγ (Homo sapiens, UniProt P37231); test: Luciferase reporter gene assay PPARγ, HepG2
Description: The luciferase reporter gene assays for FXR, LXRα, LXRβ, THα, GRα, PPARα, PPARδ/β, PPARγ, AhR, VD, ERα, ERβ and mouse Car are described in our recent paper[19]
(§2) Gal4-LBD constructs of tested nuclear receptors have been used together with pGL4.31[luc2P/GAL4UAS/Hygro] luciferase reporter construct and pRL-TK Renilla expression vector (both from Promega, Hercules, USA) in HepG2 cells transfected with Lipofectamine 2000 or 3000 reagents. For GRα and FXR receptors, full-length expression vectors have been used with pGRE-luc or pFXRE-luc luciferase constructs. For the aryl hydrocarbon receptor (AhR), p1A1-luc construct was used with only pRL-TK vector for transfection normalization. A dual reporter assay (Promega, Hercules, USA) was used to analyze both firefly and Renilla luciferase activities.
(§3) Gal4-LBD constructs of tested nuclear receptors have been used together with pGL5-luc luciferase reporter construct and pRL-TK Renilla expression vector in HepG2 cells transfected with Lipofectamine 2000 or 3000 reagents. For GRα and FXR receptors, full-length expression vectors have been used with pGRE-luc or pFXRE-luc luciferase constructs. For the aryl hydrocarbon receptor (AhR), p1A1-luc construct was used with only pRL-TK vector for transfection normalization. […] Bars represent means±S.D. (n=3).

[1] = target: T1, human CAR ligand-binding domain (LBD) (Homo sapiens, UniProt Q14994); test: TR-FRET CAR coactivator assay (LanthaScreen); format: biochemical
T1 construct: purchased ThermoFisher Scientific PV4836

rats = test: Repeated dose 28-day oral toxicity study in rats (OECD 407, non-GLP); format: in vivo; settings: up to 10 mg/kg
Description: (§1) A repeated dose 28-day oral toxicity study in Rats (Non–GLP Study) was carried out according to OECD Guideline for Testing of Chemicals No. 407 and relevant Test Facility SOPs at the Institute of Physiology, Academy of Sciences, Czech Republic as a service. The report is available after request. […] No clinical changes were observed during the administration period or the recovery period in the two selected groups. […]

[2] = as above; format: in vivo; settings: rat, in vivo, 10 mg/kg; 28 days per os, rats
Description: as §1

[3] = tested on: 3D primary human hepatocyte spheroids; test: RT-qPCR mRNA expression in 3D primary human hepatocyte spheroids; format: cell-based; settings: for CYP2B6 fold change, 3D PHH spheroids, mean of donors / CYP3A4 fold change, 3D PHH spheroids, mean of donors: MI-883 (5 uM)
Description: Briefly, PHHs were cultivated for 6 days to generate compact spheroids by spontaneous self-aggregation and then half of PHH medium was exchanged for FBS-free PHH medium. 3D PHHs were treated with MI-883 (5 μM) commenced from day 8 within a time range of 8–120 h (time points were 8, 12, 24, 48, 72, and 120 h). Conditioned FBS-free PHH medium was changed every 2–3 days of the treatment. […] Data are presented as the mean ± SD of fold change expression gained from 3D spheroids of three different donors. ATP assay has been performed as described.

THα = THα (Homo sapiens, UniProt P10827); test: Luciferase reporter gene assay THα, HepG2
Description: as §2, §3

[4] = target: T2, mutant PXR LBD (S208W/S247W/C284W) (Homo sapiens, UniProt O75469, C284W/S208W/S247W); test: CYP3A4 reporter assay with LBP-obstructed mutant PXR in HepG2 cells; format: cell-based; settings: HepG2, 24 h
T2 construct: expressed in transfected cells; host or cells: HepG2
Text: The luciferase reporter plasmid was used together with the human wild-type PXR expression vector or with expression vectors with mutated PXR LBD (Fig. 1j).

PXR/NCOA1 = target: T3, PXR/NCOA1 (Homo sapiens, UniProt O75469); test: Mammalian two-hybrid PXR/coactivator NCOA1 recruitment, HepG2; format: cell-based; design: key: firefly/Metridia luciferase activity ratio (normalized)
T3 construct: PXR-LBD (residues 108–434); expressed in transfected cells; host or cells: HepG2
T3 sequence (O75469 108-434): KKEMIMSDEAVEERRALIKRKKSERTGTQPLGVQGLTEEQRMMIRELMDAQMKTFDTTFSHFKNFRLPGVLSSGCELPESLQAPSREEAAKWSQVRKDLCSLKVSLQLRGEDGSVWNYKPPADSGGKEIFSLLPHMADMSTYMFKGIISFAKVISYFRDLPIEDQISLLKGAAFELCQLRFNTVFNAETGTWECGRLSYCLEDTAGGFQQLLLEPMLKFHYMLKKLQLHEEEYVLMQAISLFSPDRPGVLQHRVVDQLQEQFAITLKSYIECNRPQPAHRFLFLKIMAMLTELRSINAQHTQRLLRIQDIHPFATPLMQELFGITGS
Description: The GAL4-dependent pGL4-G5, harboring a pentamer of GAL4 binding sites in front of the E1b promoter was described before.
Transient batch transfection of HepG2 cells was done as described above. […] All transfections included 0.01 µg pMetLuc2control per well for normalization of firefly luciferase reporter activities. After overnight incubation with the transfection mixtures, cells were treated with chemicals in a volume of 100 µl of cell culture medium. […] Firefly luciferase activity was measured in 10 µl of cell lysates, and Metridia luciferase activity was analyzed in 10 µl of medium supernatant, both as described before. Results were normalized by dividing firefly luciferase activity by Metridia luciferase activity measured from the same well. Measurements of samples were repeated several times (n ≥ 3).

Chain of THα (P10827 163-410 isoform P10827-2 limits assumed): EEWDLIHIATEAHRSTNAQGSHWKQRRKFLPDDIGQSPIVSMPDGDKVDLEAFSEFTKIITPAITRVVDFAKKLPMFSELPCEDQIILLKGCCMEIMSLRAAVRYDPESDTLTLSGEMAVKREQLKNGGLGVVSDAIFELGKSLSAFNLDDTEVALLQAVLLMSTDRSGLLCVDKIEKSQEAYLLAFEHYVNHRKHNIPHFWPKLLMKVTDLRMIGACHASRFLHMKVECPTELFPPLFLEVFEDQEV
Chain of PPARγ (P37231 238-503 limits assumed): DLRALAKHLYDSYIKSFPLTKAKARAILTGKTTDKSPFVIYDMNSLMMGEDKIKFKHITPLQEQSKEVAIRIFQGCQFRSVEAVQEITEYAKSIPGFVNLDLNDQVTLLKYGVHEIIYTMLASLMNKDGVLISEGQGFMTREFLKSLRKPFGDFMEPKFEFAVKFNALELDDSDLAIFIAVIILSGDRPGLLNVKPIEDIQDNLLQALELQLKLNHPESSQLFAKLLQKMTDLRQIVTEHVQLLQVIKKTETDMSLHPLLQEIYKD
T1 sequence (Q14994 109-348 isoform Q14994-2 limits assumed, other chains not shown): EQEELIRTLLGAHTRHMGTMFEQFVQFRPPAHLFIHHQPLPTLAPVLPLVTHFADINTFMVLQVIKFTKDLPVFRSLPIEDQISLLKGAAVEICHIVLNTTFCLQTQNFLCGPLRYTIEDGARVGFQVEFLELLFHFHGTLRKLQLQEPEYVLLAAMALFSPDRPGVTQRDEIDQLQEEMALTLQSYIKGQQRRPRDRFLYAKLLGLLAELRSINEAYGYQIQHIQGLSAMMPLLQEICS
T2 sequence (O75469 whole entry S208W/S247W/C284W, the tested form may be a part): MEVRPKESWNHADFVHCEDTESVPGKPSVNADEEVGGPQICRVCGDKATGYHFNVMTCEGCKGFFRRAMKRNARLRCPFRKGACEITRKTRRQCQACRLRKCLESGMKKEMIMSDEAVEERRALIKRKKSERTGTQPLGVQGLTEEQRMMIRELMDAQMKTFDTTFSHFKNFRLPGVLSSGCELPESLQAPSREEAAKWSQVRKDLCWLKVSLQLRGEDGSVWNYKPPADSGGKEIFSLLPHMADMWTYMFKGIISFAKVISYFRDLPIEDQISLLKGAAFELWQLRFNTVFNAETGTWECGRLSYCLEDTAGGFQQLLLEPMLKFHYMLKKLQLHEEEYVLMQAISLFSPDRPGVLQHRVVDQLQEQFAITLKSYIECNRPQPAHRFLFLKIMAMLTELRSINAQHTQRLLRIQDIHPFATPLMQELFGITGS

NC(=O)c1cc(Cn2cc(-c3c(-c4ccc(Cl)cc4)nc4cc(F)ccn34)nn2)ccc1Cl [MI-883, 2-chloro-5-((4-(2-(4-chlorophenyl)-7-fluoroimidazo[1,2-a]pyridin-3-yl)-1H-1,2,3-triazol-1-yl)methyl)benzamide]
NRs assays: PPARy (relative to ctrl, replicates) (PPARγ): 0.61 and 0.89 and 1.05 | TR-FRET CAR Coactivator assay, mean signal (Fig. 1b) ([1]; 100pM): 1 | TR-FRET CAR Coactivator assay, mean signal (Fig. 1b) ([1]; 1nM): 1.012 | TR-FRET CAR Coactivator assay, mean signal (Fig. 1b) ([1]; 10nM): 1.235 | TR-FRET CAR Coactivator assay, mean signal (Fig. 1b) ([1]; 100nM): 1.572 | TR-FRET CAR Coactivator assay, mean signal (Fig. 1b) ([1]; 0.5μM): 1.870 | TR-FRET CAR Coactivator assay, mean signal (Fig. 1b) ([1]; 1 μM): 2.020 | TR-FRET CAR Coactivator assay, mean signal (Fig. 1b) ([1]; 10 μM): 2.020 | TR-FRET CAR Coactivator assay, mean signal (Fig. 1b) ([1]; 30 μM): 2.046 | EC50 ([1]; recombinant CAR LBD): 73 ± 20 nM | toxicity in 28-day oral study in rats (rats): no toxicity | toxicity in 28-day oral study in rats (rats; listed as MI833): No clinical signs of toxicity | NOAEL at 28 days [2]: > 10 mg/kg | proliferative biomarkers MDM2, PCNA, FOXM1 in 3D human hepatocyte spheroid ([3]; 72 h): no significant effects | CYP2B6 fold change, 3D PHH spheroids, mean of donors ([3]; 8 h): 1.9 | CYP3A4 fold change, 3D PHH spheroids, mean of donors ([3]; 8 h): 0.9 | CYP2B6 fold change, 3D PHH spheroids, mean of donors ([3]; 12 h): 3.0 | CYP3A4 fold change, 3D PHH spheroids, mean of donors ([3]; 12 h): 0.7 | CYP2B6 fold change, 3D PHH spheroids, mean of donors ([3]; 24 h): 5.1 | CYP3A4 fold change, 3D PHH spheroids, mean of donors ([3]; 24 h): 0.8 | CYP2B6 fold change, 3D PHH spheroids, mean of donors ([3]; 48 h): 8.0 | CYP3A4 fold change, 3D PHH spheroids, mean of donors ([3]; 48 h): 1.0 | CYP2B6 fold change, 3D PHH spheroids, mean of donors ([3]; 72 h): 8.2 | CYP3A4 fold change, 3D PHH spheroids, mean of donors ([3]; 72 h): 0.8 | CYP2B6 fold change, 3D PHH spheroids, mean of donors ([3]; 120 h): 6.7 | CYP3A4 fold change, 3D PHH spheroids, mean of donors ([3]; 120 h): 0.7 | NRs assays: TH (GL4-hTRa) (relative to ctrl, replicates) (THα): 1.64 and 1.08 and 1.31 | inhibition of constitutive activity of LBP-obstructed mutant PXR [4]: failure of MI-883 to inhibit | PXR/NCOA1 two-hybrid activity, replicates (PXR/NCOA1; MI-883 5 μM): 0.25 and 0.27 and 0.49 and 0.53 and 0.45 | PXR/NCOA1 two-hybrid activity, replicates (PXR/NCOA1; RIF + MI-883 5μM): 3.5 and 5.72 and 7.6 and 8.87 and 7.06 | PXR/NCOA1 two-hybrid activity, replicates (PXR/NCOA1; RIF + MI-883 10μM): 2.55 and 2.34 and 3.32 and 3.46 | PXR/NCOA1 two-hybrid activity, replicates (PXR/NCOA1; single agent: RIF (10 µM), MI-883 10μM, control ~1): 0.21 and 0.23 and 0.57 and 0.43 and 0.38
